Legend:
Assay type in all cases: cell-based, human
[1] = test system: p53 reporter (PG13-luc) in SW480 cells; assay: luciferase-based p53-reporter activity assay
Description: High-throughput screening was performed using a non-invasive bioluminescence imaging in human colorectal cancer cell lines that stably express a p53-regulated luciferase reporter. Cells were seeded in 96-well plates (Greiner Bio-One) at a density of 1×10^4 cells per well. p53 transcriptional activity was imaged using an IVIS imaging system for a period of 3-4 hours.
Cell-based screening of p53 transcriptional activity for small molecule CB002 was accomplished using noninvasive bioluminescence imaging in human colorectal cancer cell lines SW480, DLD-1, DLD-1 p73^−/−, HCT116, and HCT116 p53^−/−. These cell lines stably express a p53 reporter, PG13-luc. Cells were seeded in opaque 96-well culture at a density of 5×10^4 cells/well. The cells were treated with CB002 at ranging doses with DMSO controls. Bioluminescence in cells was imaged for p53 transcriptional activity at 2 hours and 24 hours using IVIS imaging system (Xenogen).
In order to identify small molecules that could restore the p53 signaling pathway, 50,000 small molecules from the Chembridge Library were screened using a firefly luciferase human p53 reporter assay system. SW480 colorectal cancer cells that stably express the human p53 reporter were treated with compounds at various concentrations from 0-100 μM for 2 and 24 hours. […] To further validate the effects of CB002, the screening was expanded by testing effects on p53-dependent reporter activity in DLD-1, wild-type HCT116, and p53-null colorectal cancer HCT116 cell lines. […] Referring to FIG. 1, representative images of luciferase-based p53-reporter activity assays are shown at 3 hours (Panel A). Quantification of the luciferase-based p53-reporter activity assays in three different cell lines incubated from 3-24 hours with CB002 are shown (Panels B-D). p53-reporter activity assays are shown at 2 hours for HCT116 p53-null cells (Panel E).

[2] = test system: p53 pathway proteins in DLD-1 cells; assay: Western blot of p53 targets and LC3B; conditions: for DR5 protein level: 8 and 24 hours
Description: After treatment, cells were harvested by trypsinization, washed with PBS, and lysed with RIPA buffer (Sigma-Aldrich) for 30 minutes to 1 hour at 4° C. Protein lysates were spun down and supernatant was collected. Protein quantification was performed using a Pierce™ BCA Protein Assay Kit (Thermo Fisher Scientific). 1×NuPAGE® LDS sample buffer (Thermo Fisher Scientific) and 2-Mercaptoethanol as the reducing agent (Sigma-Aldrich) were added to protein lysates, followed by boiling for 15 minutes at 95° C. Equal total protein amounts samples were loaded into NuPAGE™ Novex™ 4-12% Bis-Tris Protein Gels (1.5 mm, Thermo Fisher Scientific) and gel eletrophoresis was performed with NuPAGE™ MES SDS Running Buffer. Proteins were transferred onto an Immobilon-P membrane (PVDF, EMD Millipore) using a Bio-Rad system with a 10% Tris-Glycine and 10% methanol transfer buffer diluted in distilled and deionized water. After transfer, membranes were blocked with 10% milk in TBST solution and then incubated overnight with primary antibody, washed with TBST and incubated with secondary antibody for 1 hour. Incubations were performed in 5% milk in TBST solution. Signal was detected by using a chemiluminescent detection kit, followed by autoradiography. The following antibodies were used: p53 (DO-1, 1:1000, Santa Cruz), p73 (1:1000, Bethyl Laboratories), p21 and NOXA (1:250, EMD Millipore), DR5, FADD, cleaved caspase 3, cleaved caspase 8, cleaved PARP, and LC3B (1:1000, Cell Signaling), and β-actin (1:10000, Sigma).
Proteins were isolated using NP40 Lysis Buffer (20 mmol/L Tris-HCl (pH 7.4), 150 mmol/L NaCl, 5 mmol/L EDTA, 50 mmol/L NaF, 1 mmol/L glycerophosphate, 5 mmol/L Na4P2O7, 0.5% NP40, and complete protease inhibitor cocktail (Roche)) and electrophoresed through 4-12% SDS-PAGE followed by semi-dry transfer to PVDF membranes. The PVDF membranes were incubated with different antibodies including p21 (OP64-100UG, EMD Millipore (world wide web at emdmillipore.com/US/en/product/Antip21WAF1-(Ab-1)-Mouse-mAb-(EA10), EMD_BIO-OP64)), PUMA (12450S, Cell Signaling Technology, world wide web at cellsignal.com/products/primary-antibodies/puma-d30c10-rabbit-mab/12450), DR5 (3696S, Cell Signaling Technology, world wide web at cellsignal.com/products/primary-antibodies/dr5-antibody/3696?N=4294956287&Ntt=3696s&fromPage=plp& requestid=541668), p53(sc-126, Santa Cruz, world wide web at scbt.com/scbt/fr/product/p53-antibody-do-1), and RAN (610341, BD Transduction Laboratories, world wide web at bdbiosciences.com/us/reagents/research/antibodies-buffers/cell-biologyreagents/cell-biology-antibodies/purified-mouse-anti-ran-20ran/p/610341) in blocking buffer at 4° C. overnight. Bound antibody will be detected using IRDye secondary antibodies (LI-COR Biosciences,) in Odyssey blocking buffer for 1 hour then imaged using the ODYSSEY infrared imaging system.

[3] = test system: HCT116 p53-null cells; assay: Cell Titer-Glo cell viability assay; conditions: 72 hours, dose dependent
Description: (§1) Cell lines at a concentration of 4×10^3 cells/well were seeded out on an opaque 96-well plate and treated with CB002 and Analog 11 in ranging doses starting from 200 μmol/L with DMSO controls. At 72 hours after treatment, cells were mixed with 30 μL Cell Titer-Glo reagent and after ten minutes of room temperature incubation were imaged using IVIS imaging system (Xenogen).

[4] = test system: HCT116 cells; assay: Cell Titer-Glo cell viability assay; conditions: 72 hours, dose dependent
Description: as §1

[5] = test system: HCT116 cells; assay: FACS sub-G1 analysis; conditions: 72 hours, dose dependent, over untreated controls
Description: Cells were seeded out at 1×10^6 cells/well on six well plates and treated with CB002 and Analog 11 at ranging doses with DMSO controls. Cells were harvested after 72 hours of treatment, all cells including floating cells were fixed with ethanol and stained with Propidium Iodide and then analyzed using Epics Elite flow cytometer to measure the DNA content of the stained cells.

[6] = test system: SW480 cells; assay: CellTiter-Glo luminescent cell viability assay; conditions: for cell viability: dose dependent
Description: Cells were seeded in 96-well plates at a density of 5×10^3 cells per well. 20 μL of CellTiter-Glo® Reagent was added directly to the wells, following the manufacturer's protocol, and bioluminescence signal was determined using an IVIS imaging system.
as §1
To begin establishing the potential of CB002 as a candidate therapeutic agent, its therapeutic index was determined by treating cancer (DLD-1, SW480, and RXF393) and normal (WI38 and MRC5) cell lines with concentrations of CB002 ranging from 0-500 μM for a period of 72 hours and assessing cell viability by the CellTiter-Glo® luminescence assay (see, FIG. 2). CB002 has a significant therapeutic index among the cells tested.

[7] = 8 hours, 25 μmol/L and 50 μmol/L
[8] = 24 hours, 12 μmol/L of CB002 and 25 μmol/L of Analog 11

For Cn1c(=O)c2c(nc(Nc3ccccc3)n2C)n(C)c1=O [Analog 11, 8-anilino-1,3,7-trimethyl-3,7-dihydro-1Hpurine-2,6-dione], the p53 responsive bioluminescence ([1]; 0 to 20 μmol/L) was “increased p53 responsive bioluminescence in a dose dependent manner”, the DR5 protein level [2] was “no change of DR5” and the PUMA protein level [2, 7] was “an increase at the 25 μmol/L but not the 50 μmol/L”. For the same molecule, the p21 protein level [2, 7] was “minor increase in p21”, the PUMA protein level ([2]; 24 hours) was “an increase in PUMA” and the p21 protein level [2, 8] was “moderate increase in p21”. The cell viability [3] was “reduced cell viability”, the cell viability [4] was “reduced cell viability” and the sub-G1 fraction [5] was “increased cells in sub-G1 fraction”. The cell viability ([6]; 72 hours) was “reduced cell viability”.
With Cn1c(=O)c2[nH]c(Nc3ccccc3)nc2n(C)c1=O [CB002, 8-anilino-1,3-dimethyl-3,7-dihydro-1H-purine-2,6-dione] the “p53 luciferase reporter activity” value ([1]; 0-100 μM, 2 and 24 hours) was “activating the luciferase reporter in a dose-dependent manner”, the “LC3B protein expression time course” value ([2]; 160 μM, 0-48 hours) was “initial increase of LC3B” and the DR5 protein level [2] was “slightly increased”. For the same molecule, the PUMA protein level [2, 7] was “minor increase in PUMA”, the p21 protein level [2, 7] was “minor increase in p21” and the PUMA protein level ([2]; 24 hours) was “an increase in PUMA”. For the same molecule, the p21 protein level [2, 8] was “moderate increase in p21”, the cell viability [3] was “reduced cell viability” and the cell viability [4] was “reduced cell viability”. For the same molecule, the sub-G1 fraction [5] was “increased cells in sub-G1 fraction”, the “combination index (CI), CB002 and CPT-11” value ([6]; 72 hours) was “synergism” and the cell viability ([6]; 72 hours) was “reduced cell viability”. The “combination index (CI), CB002 and 5-FU” value ([6]; 72 hours, CI<1 indicates synergism) was under 1.0, the “cell viability, combination with 5-FU” value ([6]; CB002 (22 μM and 66 μM) with 5-FU (60 μg/ml), 72 hours, versus single agents) was “significantly reduced cell viability” and the “cell viability, combination with CPT-11” value ([6]; CB002 (66 μM) and CPT-11 (a series of doses), 72 hours, versus single agents) was “significantly reduced cell viability”. It also gave an IC50 ([6]; Homo sapiens, SW480, 72 hours, GraphPad) of 96.5 µM.
